Assay results from patent US10183914B2 (BAYER CROPSCIENCE AKTIENGESELLSCHAFT, priority 2014, dated 2019).

What was measured:
[1] = test system: Triticum aestivum (spring); assay: Pre-emergence herbicidal effect and crop plant compatibility; format: in vivo; settings: 3 weeks
Description: (§1) Seeds of monocotyledonous and dicotyledonous weed plants and crop plants are laid out in wood-fiber pots in sandy loam and covered with soil. The compounds of the invention, formulated in the form of wettable powders (WP) or as emulsion concentrates (EC), are then applied to the surface of the covering soil as aqueous suspension or emulsion at a water application rate equating to 600 to 800 L/ha with addition of 0.2% wetting agent.
(§2) After the treatment, the pots are placed in a greenhouse and kept under good growth conditions for the trial plants. The damage to the trial plants is scored visually after a trial duration of 3 weeks by comparison with untreated controls (herbicidal activity in percent (%): 100% efficacy=the plants have died, 0% efficacy=like control plants).

Zea mays = assay: as above; format: in vivo; settings: 3 weeks
Description: as §1, §2

Veronica persica = assay: Pre-emergence herbicidal effect; format: in vivo; settings: 3 weeks
Description: as §1, §2

Stellaria media = assay: Pre-emergence herbicidal effect; format: in vivo; settings: 3 weeks
Description: as §1, §2

Viola tricolor = assay: Pre-emergence herbicidal effect; format: in vivo; settings: 3 weeks
Description: as §1, §2

Matricaria inodora = assay: Pre-emergence herbicidal effect; format: in vivo; settings: 3 weeks
Description: as §1, §2

Amaranthus retroflexus = assay: Pre-emergence herbicidal effect; format: in vivo; settings: 3 weeks
Description: as §1, §2

Polygonum convolvulus = assay: Pre-emergence herbicidal effect; format: in vivo; settings: 1280 g/ha, 3 weeks
Description: as §1, §2

[2] = logp (HCOOH), physicochemical characterization
Oryza sativa = assay: Pre-emergence herbicidal effect and crop plant compatibility; format: in vivo; settings: 3 weeks
Description: as §1, §2

Echinochloa crus-galli = assay: Pre-emergence herbicidal effect; format: in vivo; settings: 320 g/ha, 3 weeks
Description: as §1, §2

Setaria viridis = assay: Pre-emergence herbicidal effect; format: in vivo; settings: 3 weeks
Description: as §1, §2

CC(=O)c1cnc(NC2c3ccccc3CCC2C)nc1 (racemic) [1.20]
TRZAS herbicidal activity in percent ([1]; 320 g/ha): 20% | ZEAMX herbicidal activity in percent (Zea mays; 320 g/ha): 0% | ZEAMX herbicidal activity in percent (Zea mays; 1280 g/ha): 0% | VERPE herbicidal activity in percent (Veronica persica; 320 g/ha): 100% | VERPE herbicidal activity in percent (Veronica persica; 1280 g/ha): 100% | STEME herbicidal activity in percent (Stellaria media; 320 g/ha): 100% | STEME herbicidal activity in percent (Stellaria media; 1280 g/ha): 100% | VIOTR herbicidal activity in percent (Viola tricolor; 320 g/ha): 90% | VIOTR herbicidal activity in percent (Viola tricolor; 1280 g/ha): 100% | MATIN herbicidal activity in percent (Matricaria inodora; 320 g/ha): 90% | MATIN herbicidal activity in percent (Matricaria inodora; 1280 g/ha): 100% | AMARE herbicidal activity in percent (Amaranthus retroflexus; 320 g/ha): 90% | AMARE herbicidal activity in percent (Amaranthus retroflexus; 1280 g/ha): 100% | POLCO herbicidal activity in percent (Polygonum convolvulus): 100% | logp (HCOOH) [2]: oily; logp (HCOOH): 2.93; 1H-NMR (CDCl3, 400 MHZ, δ in ppm): 1.05 (d, 3H, CH3);

COc1ccc2c(c1)OC(C)(C)CC2Nc1ncc(C(C)=O)c(C)n1 (racemic) [1.96]
logp (HCOOH) [2]: solid; m.p.: 183.5° C.; logp (HCOOH): 3.12; 1H-NMR (CDCl3, 400 MHZ, δ in ppm):

COc1ccc2c(c1)CCCC2Nc1ncc2c(n1)CCCC2=O (racemic) [2.109]
logp (HCOOH) [2]: solid; m.p.: 151.3° C.; logp (HCOOH): 2.83; 1H-NMR (CDCl3, 400 MHZ, δ in ppm):

CC1CCC(Nc2ncc3c(n2)CCCC3=O)c2ccccc21 (racemic) [2.111]
logp (HCOOH) [2]: oily; logp (HCOOH): 3.37; 1H-NMR (CDCl3, 400 MHZ, δ in ppm): 1.35 (d, 3H, 3H

CC(=O)c1cnc(N[C@H]2c3cc(C)ccc3C[C@@H]2C)nc1 [1.10]
chromatographic logP ([2]; HCOOH): 2.99

CC(=O)c1c(C)nc(NC2CCSc3c(F)cccc32)nc1C (racemic) [1.65]
logp (HCOOH) [2]: solid; logp (HCOOH): 2.93; 1H-NMR (CDCl3, 400 MHZ, δ in ppm): 2.20 (m, 1H, 1H

Cc1ccc2c(c1)[C@H](Nc1ncc3c(n1)CCCC3=O)CC2 [2.41]
logp (HCOOH) [2]: oily; logp (HCOOH): 3.21; 1H-NMR (CDCl3, 400 MHZ, δ in ppm): 1.95 (m, 1H, 1H

O=C1CCCc2nc(NC3CCOc4c(Cl)cccc43)ncc21 (racemic) [2.84]
logp (HCOOH) [2]: oily; logp (HCOOH): 2.75; 1H-NMR (CDCl3, 400 MHZ, δ in ppm): 2.15 (m, 3H, 2H

CC1CCc2ccccc2C1Nc1ncc2c(n1)CC(C)(C)CC2=O (racemic) [2.95]
TRZAS herbicidal activity in percent ([1]; 80 g/ha): 0% | TRZAS herbicidal activity in percent ([1]; 320 g/ha): 0% | ORYSA herbicidal activity in percent (Oryza sativa; 80 g/ha): 0% | ORYSA herbicidal activity in percent (Oryza sativa; 320 g/ha): 0% | ZEAMX herbicidal activity in percent (Zea mays; 80 g/ha): 0% | ZEAMX herbicidal activity in percent (Zea mays; 320 g/ha): 0% | VERPE herbicidal activity in percent (Veronica persica; 80 g/ha): 100% | VERPE herbicidal activity in percent (Veronica persica; 320 g/ha): 100% | ECHCG herbicidal activity in percent (Echinochloa crus-galli): 80% | STEME herbicidal activity in percent (Stellaria media; 80 g/ha): 100% | STEME herbicidal activity in percent (Stellaria media; 320 g/ha): 100% | VIOTR herbicidal activity in percent (Viola tricolor; 320 g/ha): 100% | MATIN herbicidal activity in percent (Matricaria inodora; 80 g/ha): 90% | MATIN herbicidal activity in percent (Matricaria inodora; 320 g/ha): 90% | AMARE herbicidal activity in percent (Amaranthus retroflexus; 80 g/ha): 100% | AMARE herbicidal activity in percent (Amaranthus retroflexus; 320 g/ha): 100% | logp (HCOOH) [2]: oily; logp (HCOOH): 4.02; 1H-NMR (CDCl3, 400 MHZ, δ in ppm): 1.10 (s + d, 9H,

CC(=O)c1cnc(N[C@@H]2CCc3ccccc32)nc1C [1.89]
TRZAS herbicidal activity in percent ([1]; 80 g/ha): 0% | TRZAS herbicidal activity in percent ([1]; 320 g/ha): 0% | ORYSA herbicidal activity in percent (Oryza sativa; 320 g/ha): 0% | ZEAMX herbicidal activity in percent (Zea mays; 80 g/ha): 0% | ZEAMX herbicidal activity in percent (Zea mays; 320 g/ha): 0% | VERPE herbicidal activity in percent (Veronica persica; 80 g/ha): 80% | VERPE herbicidal activity in percent (Veronica persica; 320 g/ha): 100% | STEME herbicidal activity in percent (Stellaria media; 80 g/ha): 80% | STEME herbicidal activity in percent (Stellaria media; 320 g/ha): 80% | VIOTR herbicidal activity in percent (Viola tricolor; 80 g/ha): 90% | VIOTR herbicidal activity in percent (Viola tricolor; 320 g/ha): 100% | MATIN herbicidal activity in percent (Matricaria inodora; 80 g/ha): 100% | MATIN herbicidal activity in percent (Matricaria inodora; 320 g/ha): 100% | AMARE herbicidal activity in percent (Amaranthus retroflexus; 320 g/ha): 100% | logp (HCOOH) [2]: solid; logp (HCOOH): 2.80; 1H-NMR (CDCl3, 400 MHZ, δ in ppm: 1.90 (m, 1H, 1H

COc1ccc2c(c1)CCC2Nc1ncc(C(C)=O)c(C)n1 (racemic) [1.92]
TRZAS herbicidal activity in percent ([1]; 80 g/ha): 0% | TRZAS herbicidal activity in percent ([1]; 320 g/ha): 0% | ORYSA herbicidal activity in percent (Oryza sativa; 320 g/ha): 0% | ZEAMX herbicidal activity in percent (Zea mays; 80 g/ha): 20% | ZEAMX herbicidal activity in percent (Zea mays; 320 g/ha): 20% | VERPE herbicidal activity in percent (Veronica persica; 80 g/ha): 100% | VERPE herbicidal activity in percent (Veronica persica; 320 g/ha): 100% | VIOTR herbicidal activity in percent (Viola tricolor; 320 g/ha): 100% | MATIN herbicidal activity in percent (Matricaria inodora; 320 g/ha): 100% | AMARE herbicidal activity in percent (Amaranthus retroflexus; 80 g/ha): 100% | AMARE herbicidal activity in percent (Amaranthus retroflexus; 320 g/ha): 100%

O=C1CCCc2nc(NC3CCSc4ccc(F)cc43)ncc21 (racemic) [2.114]
logp (HCOOH) [2]: oily; logp (HCOOH): 2.77; 1H-NMR (CDCl3, 400 MHZ, δ in ppm): 2.10 (m, 2H, 2H

CC1Cc2cc(Cl)ccc2C1Nc1ncc2c(n1)CCCC2=O (racemic) [2.108]
logp (HCOOH) [2]: oily; logp (HCOOH): 3.58; 1H-NMR (CDCl3, 400 MHZ, δ in ppm): 1.25 (d, 3H, CH3);

O=C1CCCc2nc(N[C@@H]3CCc4ccccc43)ncc21 [2.38]
logp (HCOOH) [2]: oily; logp (HCOOH): 4.84; 1H-NMR (CDCl3, 400 MHZ, δ in ppm): 1.85 (m, 1H, 1H

CCC1Cc2ccc(C)cc2C1Nc1ncc2c(n1)CCCC2=O (racemic) [2.106]
logp (HCOOH) [2]: oily; logp (HCOOH): 3.90; 1H-NMR (CDCl3, 400 MHZ, δ in ppm): 0.95 (t, 3H, CH3);

CC(C)c1ccc2c(c1)C(Nc1ncc3c(n1)CCCC3=O)CC2 (racemic) [2.107]
logp (HCOOH) [2]: oily; logp (HCOOH): 3.83; 1H-NMR (CDCl3, 400 MHZ, δ in ppm): 1.20 (d, 6H,

Cc1ccc2c(c1)[C@H](Nc1ncc3c(n1)CC(c1ccccc1F)CC3=O)[C@@H](C)C2 (stereo partly shown) [2.50]
ZEAMX herbicidal activity in percent (Zea mays; 320 g/ha): 0% | ZEAMX herbicidal activity in percent (Zea mays; 1280 g/ha): 0% | VERPE herbicidal activity in percent (Veronica persica; 320 g/ha): 100% | VERPE herbicidal activity in percent (Veronica persica; 1280 g/ha): 100% | STEME herbicidal activity in percent (Stellaria media; 320 g/ha): 100% | STEME herbicidal activity in percent (Stellaria media; 1280 g/ha): 100% | VIOTR herbicidal activity in percent (Viola tricolor; 320 g/ha): 90% | VIOTR herbicidal activity in percent (Viola tricolor; 1280 g/ha): 90% | SETVI herbicidal activity in percent (Setaria viridis; 1280 g/ha): 80% | AMARE herbicidal activity in percent (Amaranthus retroflexus; 1280 g/ha): 100% | logp (HCOOH) [2]: oily; logp (HCOOH): 4.86; 1H-NMR (CDCl3, 400 MHZ, δ in ppm): 1.25 (t, 3H, CH3);

CC(=O)c1cnc(N[C@@H]2CCc3c(C)cc(C)cc32)nc1 [1.95]
logp (HCOOH) [2]: solid; m.p.: 153.0° C.; logp (HCOOH): 3.45; 1H-NMR (CDCl3, 400 MHZ, δ in ppm):

CC(=O)c1cnc(NC2CCOc3c(C)cc(F)cc32)nc1C (racemic) [1.87]
TRZAS herbicidal activity in percent ([1]; 80 g/ha): 0% | TRZAS herbicidal activity in percent ([1]; 320 g/ha): 0% | ORYSA herbicidal activity in percent (Oryza sativa; 80 g/ha): 0% | ZEAMX herbicidal activity in percent (Zea mays; 80 g/ha): 0% | ZEAMX herbicidal activity in percent (Zea mays; 320 g/ha): 10% | VERPE herbicidal activity in percent (Veronica persica; 320 g/ha): 100% | ECHCG herbicidal activity in percent (Echinochloa crus-galli): 100% | STEME herbicidal activity in percent (Stellaria media; 320 g/ha): 100% | VIOTR herbicidal activity in percent (Viola tricolor; 80 g/ha): 100% | VIOTR herbicidal activity in percent (Viola tricolor; 320 g/ha): 100% | MATIN herbicidal activity in percent (Matricaria inodora; 80 g/ha): 90% | MATIN herbicidal activity in percent (Matricaria inodora; 320 g/ha): 100% | SETVI herbicidal activity in percent (Setaria viridis; 320 g/ha): 100% | AMARE herbicidal activity in percent (Amaranthus retroflexus; 80 g/ha): 80% | AMARE herbicidal activity in percent (Amaranthus retroflexus; 320 g/ha): 100%
